From a melting point compilation (Tetko et al.; mined from patent text by program, amines drawn as free bases though some values may be those of a salt)

Compound `CC1(C)CCC(C)(C)c2cc(C3(c4ccc(C(=O)O)cc4)OCCO3)c(OCc3ccccc3)cc21` has a melting point of 222 to 228 °C.
`CC(=O)Nc1c(C#N)ccc(C#N)c1[N+](=O)[O-]` showed a melting point of 232 to 233 °C.
In the case of `Cc1ccc2onc(O)c2c1`, the melting point is reported as 95 to 97 °C.
`CCC(C)Oc1ccc(OCCNC(=O)C2CC2)cc1` (centres undefined) showed a melting point of 65 to 68 °C.
`COc1cc2c(cc1OC)[C@@H]1CCCC[C@@H]1N=C2c1ccc(C(=O)OCC2CC2)cc1` (racemic) showed a melting point of 147 to 148 °C.
In the case of `O=[N+]([O-])c1ccc(Oc2cncc(Cl)n2)cc1`, the melting point is reported as 125 to 127 °C.
Compound `CC1CC(=O)N(c2ccccn2)N=C1c1ccc(OC2CCN(C(=O)OC(C)(C)C)CC2)cc1` (centres undefined) has a melting point of 164 to 166 °C.
Compound `CCN=C(Cc1ccccc1)N1CC2C(=O)CCC(c3ccccc3)(c3ccccc3)C2C1` (centres undefined) has a melting point of 108 °C.
`COC(=O)N(C)c1cc(C(C)(C)C)no1` showed a melting point of 70.5 to 71.5 °C.
For `O=S(=O)(CCCl)CCCS(=O)(=O)CCCl`, the melting point was 142 to 146 °C.
For `CC(C)(C)[N+]([O-])=Cc1ccc(S(C)(=O)=O)o1`, the melting point was 138 °C.
With `CCOCC(=O)Nc1nc[nH]c1-c1n[nH]c(-c2ccc(-c3ccccc3)cc2)n1` the melting point was 280 °C.
For `O=C(CC1CCOCC1)N[C@H]1CC[C@H](CCN2CCC(c3cccc4c3CCO4)CC2)CC1`, the melting point was 191 °C.
`N#Cc1cccc(-c2cccs2)n1` gave a melting point of 88.2 to 88.6 °C.
Work on `CON1C(C)(C)CC(O)CC1(C)C` yielded a melting point of 92 to 93 °C.
`COc1ccc(N2CCOCC2)c2sc(-c3nc4c([nH]3)CCN(C(=O)c3ccc(F)cc3)CC4)nc12` showed a melting point of 205 to 207 °C.
Work on `COc1ccc2nc(C)sc2c1N` yielded a melting point of 117 to 119 °C.
Work on `COC(=O)N(O)Cc1c(C)n(C(=O)c2ccc(Cl)cc2)c2ccc(OC)cc12` yielded a melting point of 113 to 114 °C.
Compound `O=C(O)c1ccc(-c2nc(-c3cccc(C(F)(F)F)c3)co2)cc1` has a melting point of 253 to 254 °C.
`CCN(CC)c1nc(-c2ccncc2)nc2sc(C#N)c(C)c12` showed a melting point of 169 to 171 °C.
With `CCN(CC)CCN1CCN(c2ccc(N3C[C@H](CNC(C)=O)OC3=O)cc2F)CC1` the melting point was 131 to 133 °C.
Work on `CC(C)=C(C=O)CC(=O)O` yielded a melting point of 102 °C.
Compound `CC(C)Cn1nnc(-c2cccc(-c3ccnc4c(C(=O)c5cccs5)cnn34)c2)n1` has a melting point of 141 °C.
`Cc1oc(-c2ccccc2)nc1COc1ccc(Cn2cc(CC(=O)O)c(-c3ccccc3)n2)cn1` gave a melting point of 144 to 145 °C.
In the case of `CCN1C(=O)C(C)(C)C(=O)N(C)c2cc(CN(CCn3ccc4oc(C)cc4c3=O)Cc3ccccc3C#N)ccc21`, the melting point is reported as 157 to 159 °C.
`Nc1c2c(nc3c(O)cccc13)CCC2` gave a melting point of 187 to 188 °C.
In the case of `Cc1nc2c(cc1CO)CCCCC2`, the melting point is reported as 79 to 80 °C.
With `C=Cc1ccc(C(=O)NC(C#N)n2cccn2)cc1` (centres undefined) the melting point was 159 to 161 °C.
With `CCCCCCC(C(=O)O)n1ccc2cc(-c3ccccc3C(=O)O)ccc21` (centres undefined) the melting point was 115 to 120 °C.
In the case of `C=CS(=O)(=O)c1ccc(C)cc1`, the melting point is reported as 66 °C.
`CC(Sc1ccc(NC(=O)NC(=O)c2ccccc2Cl)cc1)c1ccccc1` (centres undefined) gave a melting point of 226 °C.
`CCCc1nn(C)c2c(=O)[nH]c(-c3cc(CCC(=O)O)ccc3OCC)nc12` showed a melting point of 165 to 167 °C.
In the case of `O=c1oc2ccccc2c(O)c1C1CC(c2ccc(-c3ccc(OCc4ccc(Br)cc4)cc3)cc2)Cc2ccccc21` (centres undefined), the melting point is reported as 240 °C.
`CC(C)CCCC(C)C1CCC2C3CC=C4CC(OC(=O)NCC(=O)N(CCCl)CCCl)CCC4(C)C3CCC12C` (centres undefined) showed a melting point of 98 to 100 °C.
For `NC1=NN(c2cccc(Cl)n2)C(c2ccccc2)C1` (centres undefined), the melting point was 188 °C.
`CC#CCOc1ccc(OCC(=O)O)cc1` gave a melting point of 114 to 116 °C.
Compound `COC(=O)C(C)(C)C(Cc1ccc(OC)cc1)NS(=O)(=O)c1ccc(C)cc1` (centres undefined) has a melting point of 126 to 127 °C.
For `CCOc1c(OC)cccc1C(=O)Nc1ccc(C(=O)OC)cc1C(=O)OC`, the melting point was 113 to 115 °C.
Compound `COc1cc(OC)c(C(=O)Nc2cccc3c2CCN(C)C3)cc1OC` has a melting point of 159 to 160 °C.
For `CC1(C)Nc2cc(Br)ccc2-n2cccc21`, the melting point was 89 to 91 °C.
With `O=c1c(-c2ccccc2)ccc2n1CCSc1ccsc1-2` the melting point was 139 to 141 °C.
`CCN1C(=O)C(C)(C)CCc2c1ccc(Nc1ncc(Cl)c(Nc3ccccc3C(=O)NC)n1)c2OC` showed a melting point of 226 to 228 °C.
Compound `Cc1ccc(S(=O)(=O)NC(=O)OCCc2ccc(-n3c(CCC(=O)c4ccccn4)nc4cc(C(F)(F)F)c(Cl)cc43)cc2)cc1` has a melting point of 234 °C.
Compound `CC(=O)N(C)Nc1ccc(CCn2cnc3cc(-c4ccc(Cl)cc4)sc3c2=O)cc1` has a melting point of 267 to 268 °C.
Compound `O=C(Nc1ccc(-n2nc(C(F)(F)F)cc2Cl)cc1)c1ccncc1F` has a melting point of 128 to 129 °C.
Compound `COc1ccc(S(=O)(=O)N2C(=O)[C@@](c3ccccc3OC)(N3C[C@H](OC(=O)C4CCCCC4)C[C@H]3C(=O)N(C)C)c3cc(Cl)ccc32)c(OC)c1` has a melting point of 197 to 198 °C.
Compound `CC(=O)OCc1ccccc1/C(=N\O)C(N)=O` has a melting point of 112 to 114 °C.
For `CC1(C(=O)C(CC2CCCCC2)n2cncn2)COCOC1` (centres undefined), the melting point was 68 to 71 °C.
`O=[N+]([O-])c1cc(C(F)(F)F)c(Br)cc1-n1ccnc1` showed a melting point of 149 to 157 °C.
For `Cc1c[nH]c(=O)nc1OCc1ccccc1`, the melting point was 181 to 182 °C.
With `COc1ccnc(C(=O)N[C@H]2COC(=O)[C@H](Cc3ccccc3)[C@@H](OCSC)[C@H](C)OC2=O)c1O` the melting point was 159 to 160 °C.
In the case of `CCOCCCCCCCCCCC(=O)O`, the melting point is reported as 44 to 45.5 °C.
`CC(C)(C)NCC(O)COc1cc(Cl)ccc1-c1ccc(=S)[nH]n1` (centres undefined) showed a melting point of 195 to 198 °C.
Compound `Cc1ccc(OC2=C(Oc3ccc(C)cc3)C(F)(F)C(F)(F)C2(F)F)cc1` has a melting point of 46 to 48 °C.
`NC(=S)Nc1ccc(Br)cn1` showed a melting point of 242 to 243 °C.
`C#CCC1C(=O)NOc2cc(F)c(NC(=S)N3CCCC=N3)cc21` (centres undefined) showed a melting point of 151 to 155 °C.
In the case of `Cc1onc(-c2ccccc2)c1-c1[nH]c2ccccc2c1CCCN(C)C`, the melting point is reported as 156 to 157 °C.
`COc1cc(-c2[nH]c3ccc(OCc4ccccc4)cc3c2C)ccc1OCc1ccccc1` showed a melting point of 155 to 158 °C.
`CS(=O)(=O)N1CCN(c2ccc(NC(=O)c3ccccc3-c3ccc(C(F)(F)F)cc3)cc2)CC1` showed a melting point of 254 to 256 °C.
`Cc1cccc(-c2cn(C)cc(-c3ccc(Br)cc3)c2=O)c1` gave a melting point of 201 to 204 °C.
With `Cc1ccc(C)c2oc(CN3CCC[C@@H](OCc4cc(C(F)(F)F)cc(C(F)(F)F)c4)[C@H]3c3ccccc3)nc12` (relative stereo) the melting point was 109 to 110 °C.
In the case of `COc1cccc2c(CCBr)coc12`, the melting point is reported as 61 to 62 °C.
`COc1ccc(-c2nc(SCS(C)=O)[nH]c2-c2ccc(OC)cc2)cc1` (centres undefined) showed a melting point of 84.5 to 86.5 °C.
For `COC(=O)c1ccc(CCc2csc(NC(C)=O)n2)cc1`, the melting point was 170 to 171 °C.
For `OC1(Cc2ccccc2F)CCCCCC1`, the melting point was 35 to 38 °C.
For `COc1ccc2c(-c3ccccn3)noc2c1Cl`, the melting point was 164 to 166 °C.
In the case of `CC1OC(O)CC(NC(=O)C(F)(F)F)C1C` (centres undefined), the melting point is reported as 132 to 134 °C.
In the case of `CC(=O)Nc1cccc(-n2c(=O)c(CCCc3ccncc3)cc3cccnc32)c1`, the melting point is reported as 200 to 202 °C.
Compound `c1ccc2c(c1)OCc1c(-c3nc(C4CC4)no3)ncn1-2` has a melting point of 169 to 173 °C.
`Cc1cc(C(=O)N[C@@H]2CCc3cccc(N4CCN(C)CC4)c3C2)ccc1N1CCOCC1` showed a melting point of 172 to 175 °C.
Compound `COCCNc1ccc(S(=O)(=O)Oc2ccc(N)c([N+](=O)[O-])c2)cc1` has a melting point of 105 °C.
With `CS(=O)(=O)c1ccc(-c2cnn(CC(F)(F)F)c(=O)c2Oc2cc(C(F)(F)F)ccc2F)cc1` the melting point was 133 to 135 °C.
With `CC12CC(=O)NN=C1c1ccc(Br)cc1C2` (centres undefined) the melting point was 242 °C.
Compound `Fc1cccc(Cl)c1-c1cc(Cl)n(-c2ccc(COc3ncc(C(F)(F)F)cc3Cl)cc2)n1` has a melting point of 120 to 121 °C.
In the case of `COC(=O)CC1(C)Oc2ccc([N+](=O)[O-])cc2-n2c(Cl)ccc21` (centres undefined), the melting point is reported as 124 to 125 °C.
Work on `COC(=O)c1cc(Oc2ccc(F)cc2F)ncc1[N+](=O)[O-]` yielded a melting point of 90.2 to 91.4 °C.
In the case of `Cn1c(=O)sc2cc(N3C[C@H](C(=O)NCCF)OC3=O)ccc21`, the melting point is reported as 201 to 203 °C.
Compound `c1ccc(Nc2ccc3nnn(Cc4ccc5ncccc5c4)c3n2)cc1` has a melting point of 237 to 239 °C.
Work on `N#Cc1ccc(OCCCC(=O)O)cc1` yielded a melting point of 210 °C.
`CC(=O)Nc1cnc(Br)c(N)n1` showed a melting point of 218 to 221 °C.
Work on `CN(C)C(=O)c1nc(-c2ccccc2)nc2c1c1ccc(Cl)cc1n2C` yielded a melting point of 211 to 213 °C.
`Nc1cccnc1N1CCN(C(=O)c2ccc(C(=O)O)cn2)CC1` showed a melting point of 137 to 140 °C.
In the case of `O=[N+]([O-])c1c(Cl)ccc(S(=O)(=O)Oc2ccccc2)c1Cl`, the melting point is reported as 91 °C.
Compound `O=C(c1ccccc1)c1oc2ccccc2c1-c1ccc(-c2ccc(OC(Cc3ccccc3)C(=O)O)cc2)cc1` (centres undefined) has a melting point of 159 to 161 °C.
Work on `CN1CCC(c2c(O)cc(O)c3c(=O)cc(-c4ccccc4Cl)oc23)C1CS` (centres undefined) yielded a melting point of 205 to 206 °C.
For `CCc1nn(C2CCCC2)c2cc(C(=O)Nc3ccc(C(=O)NOCc4ccccc4)cc3)ccc12`, the melting point was 194 to 198 °C.
Work on `CCc1cc(Cl)c(S(C)(=O)=O)cc1C(=O)O` yielded a melting point of 180 to 183 °C.
`CC(C)c1cccc(Nc2nc(Cl)nc(NCc3ccccn3)n2)c1` gave a melting point of 130 to 132 °C.
`Cc1c(F)c(N2CCN(C=O)C(C)C2)cc2c1c(=O)c(C=O)cn2C1CC1` (centres undefined) gave a melting point of 258 to 260 °C.
`CC(C)Oc1ccc(OC(C)C)c(OCCN2C(=O)c3ccccc3C2=O)c1` showed a melting point of 66 °C.
`Cc1oc(-c2cccc(CCc3ccccc3)c2)nc1CCOc1ccc(OC(C)(C)C(=O)O)cc1` gave a melting point of 124 to 125 °C.
In the case of `COC(=O)Cn1c(=O)c(=O)[nH]c2cc(N)c(Cl)cc21`, the melting point is reported as over 260 °C.
In the case of `CC(=O)OC1CSC(Oc2cncc(F)c2)C(OC(C)=O)C1OC(C)=O` (centres undefined), the melting point is reported as 143 °C.
For `OC1CSC(Oc2ccc(-c3cccnc3Cl)nc2)C(O)C1O` (centres undefined), the melting point was 203 °C.
Work on `C[Si](C)(C)c1c(Br)cnc2c1CCO2` yielded a melting point of 92 to 94 °C.
Work on `N=C(NCCCc1c[nH]cn1)NC1CCN(c2ccc(C3=NNC(=O)CC3CO)cc2[N+](=O)[O-])CC1` (centres undefined) yielded a melting point of 135 to 137 °C.
Compound `ClC1=Nc2ccccc2Sc2c1csc2Cl` has a melting point of 163 to 165 °C.
`CCCCCOC(=O)C1CC(Br)=NN1c1ncccc1Cl` (centres undefined) gave a melting point of 39 to 42 °C.
Work on `C=CC(C)(C)CC(NC(=O)c1ccc(Cl)cc1)NC(=N[N+](=O)[O-])Nc1cccnc1` (centres undefined) yielded a melting point of 186 °C.
